Laboratory results reported in US6737383B1, “Herbicidal oxadiazolidines” (priority 1999, dated 2004).

Assays:
blackgrass = test: Test B pre/postemergence blackgrass; assay type: in vivo, Alopecurus myosuroides
Summary of the method: (§1)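 Test chemicals in a non-phytotoxic solvent mixture with surfactant were sprayed preemergence onto planted seeds and postemergence onto plants 2 to 18 cm tall (1- to 4-leaf stage). After twelve to sixteen days in a greenhouse, injury was visually rated against untreated controls from 0 (no effect) to 10 (complete control).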

cocklebur = test: Test B pre/postemergence cocklebur; assay type: in vivo, Xanthium strumarium
Summary of the method: as §1

giant foxtail = test: Test B pre/postemergence giant foxtail; assay type: in vivo, Setaria faberii
Summary of the method: as §1

morningglory = test: Test B pre/postemergence morningglory; assay type: in vivo, Ipomoea hederacea
Summary of the method: as §1

pigweed = test: Test B pre/postemergence pigweed; assay type: in vivo, Amaranthus retroflexus
Summary of the method: as §1

rape = test: Test B pre/postemergence rape; assay type: in vivo, Brassica napus
Summary of the method: as §1

soybean = test: Test B pre/postemergence soybean; assay type: in vivo, Glycine max; conditions: for Plant response rating, Soybean: Postemergence
Summary of the method: as §1

sugar beet = test: Test B pre/postemergence sugar beet; assay type: in vivo, Beta vulgaris
Summary of the method: as §1

velvetleaf = test: Test B pre/postemergence velvetleaf; assay type: in vivo, Abutilon theophrasti
Summary of the method: as §1

wheat = test: Test B pre/postemergence wheat; assay type: in vivo, Triticum aestivum
Summary of the method: as §1

wild oat = test: Test B pre/postemergence wild oat; assay type: in vivo, Avena fatua
Summary of the method: as §1

purple nutsedge = test: Test B pre/postemergence purple nutsedge; assay type: in vivo, Cyperus rotundus
Summary of the method: as §1

rice = test: Test B flood test rice; assay type: in vivo, Oryza sativa
Summary of the method: (§2)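 Plants were grown to the 2-leaf stage before treatment with test chemical, then held in a greenhouse for twelve to sixteen days. Injury was visually rated against untreated controls on a 0–10 scale, where 0 is no effect and 10 is complete control.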

smallflower flatsedge = test: Test B flood test smallflower flatsedge; assay type: in vivo, Cyperus difformis
Summary of the method: as §2

duck salad = test: Test B flood test duck salad; assay type: in vivo, Heteranthera limosa
Summary of the method: as §2

bamyardgrass = test: Test B flood test barnyardgrass; assay type: in vivo, Echinochloa crus-galli
Summary of the method: as §2

[1] = Postemergence, Rate 125 g/ha, scale 0 to 10, 0 is no effect, 10 is complete control
[2] = Preemergence, Rate 62 g/ha, scale of 0 to 10 where 0 is no effect and 10 is complete control
[3] = Preemergence, Rate 250 g/ha, scale of 0 to 10 where 0 is no effect and 10 is complete control
[4] = Preemergence, Rate 500 g/ha, scale of 0 to 10 where 0 is no effect and 10 is complete control
[5] = Rate 62 g/ha, Postemergence, scale 0 to 10 (0 no effect, 10 complete control)
[6] = Rate 250 g/ha, Postemergence, scale of 0 to 10 where 0 is no effect and 10 is complete control
[7] = Rate 500 g/ha, Postemergence, scale 0 to 10, 0 no effect, 10 complete control
[8] = Rate 62 g/ha, headed Pre-emergence (flood test species), scale 0 to 10 (0 no effect, 10 complete control)
[9] = Rate 125 g/ha, Pre-emergence, flood test species, scale 0 to 10 where 0 is no effect and 10 is complete control
[10] = Rate 250 g/ha, Pre-emergence, flood-test species, scale 0 to 10, 0 is no effect, 10 is complete control
[11] = Rate 500 g/ha, Pre-emergence, flood test species, scale 0 to 10 (0 no effect, 10 complete control)

## CC(C)N(C(=O)n1oc(=O)n(C2CC3CCC2C3)c1=O)c1ccccc1 (centres unmarked) [Compound 328]
blackgrass; [1]
  Plant response rating, Blackgrass: 1
blackgrass; [2]
  Blackgrass plant response rating: 0
blackgrass; Preemergence, Rate 125 g/ha
  Blackgrass plant response rating (0 to 10 scale): 0
blackgrass; [3]
  Blackgrass plant response rating: 4
blackgrass; [4]
  Blackgrass plant response rating: 7
blackgrass; [5]
  Blackgrass plant response rating: 0
blackgrass; [6]
  Plant response rating, Blackgrass: 5
blackgrass; [7]
  Plant response rating, Blackgrass: 5
cocklebur; [1]
  Plant response rating, Cocklebur: 0
cocklebur; Preemergence, Rate 125 g/ha
  Cocklebur plant response rating (0 to 10 scale): 0
cocklebur; [3]
  Cocklebur plant response rating: 0
cocklebur; [4]
  Cocklebur plant response rating: 0
cocklebur; [5]
  Cocklebur plant response rating: 0
cocklebur; [6]
  Plant response rating, Cocklebur: 0
cocklebur; [7]
  Plant response rating, Cocklebur: 0
Giant foxtail; [1]
  Plant response rating, Giant foxtail: 0
Giant foxtail; [2]
  Giant foxtail plant response rating: 0
Giant foxtail; Preemergence, Rate 125 g/ha
  Giant foxtail plant response rating (0 to 10 scale): 5
Giant foxtail; [3]
  Giant foxtail plant response rating: 8
Giant foxtail; [4]
  Giant foxtail plant response rating: 9
Giant foxtail; [5]
  Giant foxtail plant response rating: 0
Giant foxtail; [6]
  Plant response rating, Giant foxtail: 0
Giant foxtail; [7]
  Plant response rating, Giant foxtail: 1
morningglory; [1]
  Plant response rating, Morningglory: 8
morningglory; [2]
  Morningglory plant response rating: 0
morningglory; Preemergence, Rate 125 g/ha
  Morningglory plant response rating (0 to 10 scale): 0
morningglory; [3]
  Morningglory plant response rating: 0
morningglory; [4]
  Morningglory plant response rating: 4
morningglory; [5]
  Morningglory plant response rating: 7
morningglory; [6]
  Plant response rating, Morningglory: 10
morningglory; [7]
  Plant response rating, Morningglory: 10
pigweed; [1]
  Plant response rating, Redroot pigweed: 3
pigweed; [2]
  Redroot pigweed plant response rating: 0
pigweed; Preemergence, Rate 125 g/ha
  Redroot pigweed plant response rating (0 to 10 scale): 0
pigweed; [3]
  Redroot pigweed plant response rating: 0
pigweed; [4]
  Redroot pigweed plant response rating: 4
pigweed; [5]
  Redroot pigweed plant response rating: 2
pigweed; [6]
  Plant response rating, Redroot pigweed: 3
pigweed; [7]
  Plant response rating, Redroot pigweed: 5
rape; [1]
  Plant response rating, Rape: 0
rape; [2]
  Rape plant response rating: 0
rape; Preemergence, Rate 125 g/ha
  Rape plant response rating (0 to 10 scale): 0
rape; [3]
  Rape plant response rating: 0
rape; [4]
  Rape plant response rating: 0
rape; [5]
  Rape plant response rating: 0
rape; [6]
  Plant response rating, Rape: 0
rape; [7]
  Plant response rating, Rape: 0
soybean; Rate 125 g/ha, scale 0 to 10, 0 is no effect, 10 is complete control
  Plant response rating, Soybean: 2
soybean; [2]
  Soybean plant response rating: 0
soybean; Preemergence, Rate 125 g/ha
  Soybean plant response rating (0 to 10 scale): 0
soybean; [3]
  Soybean plant response rating: 0
soybean; [4]
  Soybean plant response rating: 0
soybean; Rate 250 g/ha, scale of 0 to 10 where 0 is no effect and 10 is complete control
  Plant response rating, Soybean: 5
soybean; Rate 500 g/ha, scale 0 to 10, 0 no effect, 10 complete control
  Plant response rating, Soybean: 6
Sugar beet; [1]
  Plant response rating, Sugarbeets: 0
Sugar beet; [2]
  Sugarbeets plant response rating: 0
Sugar beet; Preemergence, Rate 125 g/ha
  Sugarbeets plant response rating (0 to 10 scale): 0
Sugar beet; [3]
  Sugarbeets plant response rating: 0
Sugar beet; [4]
  Sugarbeets plant response rating: 0
Sugar beet; [5]
  Sugarbeets plant response rating: 0
Sugar beet; [6]
  Plant response rating, Sugarbeets: 0
Sugar beet; [7]
  Plant response rating, Sugarbeets: 0
velvetleaf; [1]
  Plant response rating, Velvetleaf: 0
velvetleaf; [2]
  Velvetleaf plant response rating: 0
velvetleaf; Preemergence, Rate 125 g/ha
  Velvetleaf plant response rating (0 to 10 scale): 0
velvetleaf; [3]
  Velvetleaf plant response rating: 0
velvetleaf; [4]
  Velvetleaf plant response rating: 0
velvetleaf; [5]
  Velvetleaf plant response rating: 0
velvetleaf; [6]
  Plant response rating, Velvetleaf: 0
velvetleaf; [7]
  Plant response rating, Velvetleaf: 0
wheat; [1]
  Plant response rating, Wheat: 0
wheat; [2]
  Wheat plant response rating: 0
wheat; Preemergence, Rate 125 g/ha
  Wheat plant response rating (0 to 10 scale): 0
wheat; [3]
  Wheat plant response rating: 0
wheat; [4]
  Wheat plant response rating: 0
wheat; [5]
  Wheat plant response rating: 0
wheat; [6]
  Plant response rating, Wheat: 0
wheat; [7]
  Plant response rating, Wheat: 0
Wild oat; [1]
  Plant response rating, Wild oats: 0
Wild oat; [2]
  Wild oats plant response rating: 0
Wild oat; Preemergence, Rate 125 g/ha
  Wild oats plant response rating (0 to 10 scale): 0
Wild oat; [3]
  Wild oats plant response rating: 0
Wild oat; [4]
  Wild oats plant response rating: 1
Wild oat; [5]
  Wild oats plant response rating: 0
Wild oat; [6]
  Plant response rating, Wild oats: 0
Wild oat; [7]
  Plant response rating, Wild oats: 0
Purple nutsedge; [1]
  Plant response rating, Nutsedge: 0
Purple nutsedge; [2]
  Nutsedge plant response rating: 0
Purple nutsedge; Preemergence, Rate 125 g/ha
  Nutsedge plant response rating (0 to 10 scale): 0
Purple nutsedge; [3]
  Nutsedge plant response rating: 0
Purple nutsedge; [4]
  Nutsedge plant response rating: 0
Purple nutsedge; [5]
  Nutsedge plant response rating: 0
Purple nutsedge; [6]
  Plant response rating, Nutsedge: 0
Purple nutsedge; [7]
  Plant response rating, Nutsedge: 0
rice; [8]
  Rice plant response rating: 0
rice; [9]
  Rice plant response rating: 0
rice; [10]
  Rice plant response rating: 0
rice; [11]
  Rice plant response rating: 7
Smallflower flatsedge; [8]
  S. Flatsedge plant response rating: 0
Smallflower flatsedge; [9]
  S. Flatsedge plant response rating: 0
Smallflower flatsedge; [10]
  S. Flatsedge plant response rating: 0
Smallflower flatsedge; [11]
  S. Flatsedge plant response rating: 0
Duck salad; [8]
  Ducksalad plant response rating: 0
Duck salad; [9]
  Ducksalad plant response rating: 0
Duck salad; [10]
  Ducksalad plant response rating: 0
Duck salad; [11]
  Ducksalad plant response rating: 0
bamyardgrass; [8]
  Barnyardgrass plant response rating: 0
bamyardgrass; [9]
  Barnyardgrass plant response rating: 0
bamyardgrass; [10]
  Barnyardgrass plant response rating: 0
bamyardgrass; [11]
  Barnyardgrass plant response rating: 0
